Measured values taken from the NIST ThermoML archive (doi:10.1016/j.jct.2004.09.005).
Values joined by “and” are separate entries in the source; they are usually repeats but may differ in a detail not shown here. Identical values can stand only once.

Legend:
[1] = Crystal; for vapor or sublimation pressure: Calculated from knudsen effusion weight loss; for Normal melting temperature: DTA
[2] = Molar enthalpy of transition or fusion; settings: Crystal; DSC

O=C(O)c1ccccc1Br [2-bromobenzoic acid]
[1]
Settings	vapor or sublimation pressure
327.56 K	9.4e-05 kPa and 9.1e-05 kPa
330.16 K	0.000127 kPa and 0.000126 kPa and 0.000125 kPa
332.67 K	0.000169 kPa and 0.000174 kPa and 0.000167 kPa
335.15 K	0.000227 kPa and 0.000223 kPa and 0.000224 kPa
337.69 K	0.000297 kPa and 0.000299 kPa and 0.000296 kPa
340.16 K	0.000402 kPa and 0.000394 kPa and 0.000392 kPa
342.63 K	0.000533 kPa and 0.000524 kPa
345.16 K	0.000665 kPa and 0.000698 kPa and 0.000678 kPa
347.68 K	0.000908 kPa and 0.000897 kPa and 0.000878 kPa

Settings	Molar enthalpy of transition or fusion [kcal/mol]	Normal melting temperature [°C]
[1]	–	148.5
[2]	5.93	–

O=C(O)c1ccccc1Cl [2-chlorobenzoic acid]
[1]
Settings	vapor or sublimation pressure
320.16 K	0.000103 kPa and 0.000102 kPa and 0.0001 kPa
322.16 K	0.000127 kPa and 0.000126 kPa
324.14 K	0.000166 kPa and 0.000164 kPa and 0.000163 kPa
326.14 K	0.000205 kPa and 0.000204 kPa and 0.000206 kPa
329.15 K	0.0003 kPa and 0.000294 kPa
332.13 K	0.000417 kPa and 0.000414 kPa and 0.00041 kPa
335.18 K	0.000584 kPa and 0.000582 kPa and 0.000576 kPa
337.14 K	0.000734 kPa and 0.000721 kPa
339.15 K	0.000934 kPa and 0.000935 kPa and 0.00092 kPa

Settings	Molar enthalpy of transition or fusion [kcal/mol]	Normal melting temperature [°C]
[1]	–	140.80
[2]	6.03	–

O=C(O)c1cccc(Br)c1 [3-bromobenzoic acid]
[1]
Settings	vapor or sublimation pressure
327.67 K	0.000111 kPa and 0.000113 kPa
330.66 K	0.00016 kPa and 0.000152 kPa
332.64 K	0.0002 kPa and 0.000196 kPa
335.16 K	0.00025 kPa and 0.000253 kPa and 0.000261 kPa
337.71 K	0.000354 kPa and 0.000351 kPa and 0.00035 kPa
340.14 K	0.000464 kPa and 0.000451 kPa and 0.00045 kPa
342.65 K	0.000596 kPa and 0.00059 kPa and 0.000584 kPa
345.15 K	0.000783 kPa and 0.00077 kPa and 0.000767 kPa
347.6 K	0.000995 kPa and 0.001004 kPa and 0.000982 kPa

Settings	Molar enthalpy of transition or fusion [kcal/mol]	Normal melting temperature [°C]
[1]	–	156.93
[2]	5.95	–

O=C(O)c1cccc(Cl)c1 [3-chlorobenzoic acid]
[1]
Settings	vapor or sublimation pressure
320.13 K	0.000109 kPa and 0.000106 kPa and 0.000104 kPa
321.18 K	0.000122 kPa and 0.00012 kPa and 0.000117 kPa
324.17 K	0.000173 kPa and 0.000171 kPa and 0.00017 kPa
327.14 K	0.000241 kPa and 0.000236 kPa and 0.000245 kPa
330.15 K	0.000335 kPa and 0.000327 kPa and 0.000324 kPa
333.17 K	0.000474 kPa and 0.000472 kPa and 0.00047 kPa
336.13 K	0.000655 kPa and 0.000644 kPa
339.01 K	0.000896 kPa and 0.000873 kPa and 0.000877 kPa
340.13 K	0.001012 kPa and 0.000984 kPa and 0.00099 kPa

Settings	Molar enthalpy of transition or fusion [kcal/mol]	Normal melting temperature [°C]
[1]	–	154.72
[2]	5.66	–

O=C(O)c1ccc(Br)cc1 [4-bromobenzoic acid]
[1]
Settings	vapor or sublimation pressure
348.67 K	0.000155 kPa and 0.000153 kPa and 0.000152 kPa
350.14 K	0.000176 kPa and 0.00018 kPa and 0.000175 kPa
351.67 K	0.000202 kPa and 0.000205 kPa
353.14 K	0.000245 kPa and 0.00024 kPa
354.65 K	0.000276 kPa and 0.000278 kPa
356.17 K	0.000331 kPa and 0.000324 kPa and 0.000326 kPa
357.67 K	0.000384 kPa and 0.000389 kPa and 0.000376 kPa
359.24 K	0.000448 kPa and 0.000429 kPa and 0.000447 kPa
360.65 K	0.000517 kPa and 0.000495 kPa and 0.000512 kPa
362.22 K	0.000609 kPa and 0.000617 kPa and 0.000611 kPa
363.63 K	0.000692 kPa and 0.000703 kPa and 0.000683 kPa
365.23 K	0.00082 kPa and 0.000809 kPa
366.65 K	0.000932 kPa and 0.000909 kPa

Settings	Molar enthalpy of transition or fusion [kcal/mol]	Normal melting temperature [°C]
[1]	–	253.19
[2]	7.38	–
